Like-named read-outs stand apart in the source and are kept apart here.
Experiments:
[1] = biological target: Drosophila melanogaster Golgi α-mannosidase II (GMIIb) (Drosophila melanogaster, UniProt Q9VF33); assay: Inhibition of Golgi α-mannosidase II (GMIIb), pNP-Man substrate; type: biochemical; details: for IC50: 2 mM pNP-Man; for fold decrease in inhibition activity against GMIIb in comparison with 1a: relative to 1a
Protocol: (§1) The purification and characterization of recombinant Drosophila melanogaster Golgi α-mannosidase II [9] (GMIIb) and lysosomal α-mannosidase II (LManII) was carried out as already described. Activity of prepared mannosidases was measured using p-nitrophenyl-α-D-mannopyranoside (pNP-Man; Sigma-Aldrich) as a substrate at 2 mM concentration prepared from a 100 mM stock in dimethyl sulfoxide by dilution in 50 mM acetate buffer at optimal pH for the enzymes (Jack bean α-mannosidase (JBMan) at pH 5.0, Golgi α-mannosidase (GMIIb) at pH 6.0 and lysosomal α-mannosidase (LManII) at pH 5.2) and 0.5 μL of the enzyme (0.05 µg of protein for Jack bean α-mannosidase), in a total volume of 50 μL for 1–2 h at 37 °C. GMIIb was assayed in the presence of 0.5 mM CoCl2. Pyrrolidines 2–5 used in biochemical evaluation were lyophilized before use. The inhibitors 2–5 were pre-incubated with the enzyme in the buffer for 5 min at rt and the reaction was started by addition of the substrate. The reactions were terminated with two volumes (0.1 mL) of 0.5 M sodium carbonate and the production of p-nitrophenol was measured at 405 nm using a multimode reader Mithras LB943 (Berthold Technologies). The IC50 value was determined with 2 mM pNP-Man. All biochemical assays were performed in 96 well microplates in triplicate.

[2] = biological target: T1, Jack bean α-mannosidase (JBMan) (Canavalia ensiformis, UniProt C0HJB3); assay: Inhibition of jack bean α-mannosidase (JBMan), pNP-Man substrate; type: biochemical; details: n.i. = no inhibition, 2 mM pNP-Man; for inhibition at 2000 µM: pH 5, 2 mM inhibitor, read-out: JBMan (%) inhibition in the presence of 2 mM inhibitor concentration; for JBMan (%) inhibition in the presence of 2 mM inhibitor concentration: pH 5.0
T1 construct: purchased
T1 sequence (C0HJB3 1-981): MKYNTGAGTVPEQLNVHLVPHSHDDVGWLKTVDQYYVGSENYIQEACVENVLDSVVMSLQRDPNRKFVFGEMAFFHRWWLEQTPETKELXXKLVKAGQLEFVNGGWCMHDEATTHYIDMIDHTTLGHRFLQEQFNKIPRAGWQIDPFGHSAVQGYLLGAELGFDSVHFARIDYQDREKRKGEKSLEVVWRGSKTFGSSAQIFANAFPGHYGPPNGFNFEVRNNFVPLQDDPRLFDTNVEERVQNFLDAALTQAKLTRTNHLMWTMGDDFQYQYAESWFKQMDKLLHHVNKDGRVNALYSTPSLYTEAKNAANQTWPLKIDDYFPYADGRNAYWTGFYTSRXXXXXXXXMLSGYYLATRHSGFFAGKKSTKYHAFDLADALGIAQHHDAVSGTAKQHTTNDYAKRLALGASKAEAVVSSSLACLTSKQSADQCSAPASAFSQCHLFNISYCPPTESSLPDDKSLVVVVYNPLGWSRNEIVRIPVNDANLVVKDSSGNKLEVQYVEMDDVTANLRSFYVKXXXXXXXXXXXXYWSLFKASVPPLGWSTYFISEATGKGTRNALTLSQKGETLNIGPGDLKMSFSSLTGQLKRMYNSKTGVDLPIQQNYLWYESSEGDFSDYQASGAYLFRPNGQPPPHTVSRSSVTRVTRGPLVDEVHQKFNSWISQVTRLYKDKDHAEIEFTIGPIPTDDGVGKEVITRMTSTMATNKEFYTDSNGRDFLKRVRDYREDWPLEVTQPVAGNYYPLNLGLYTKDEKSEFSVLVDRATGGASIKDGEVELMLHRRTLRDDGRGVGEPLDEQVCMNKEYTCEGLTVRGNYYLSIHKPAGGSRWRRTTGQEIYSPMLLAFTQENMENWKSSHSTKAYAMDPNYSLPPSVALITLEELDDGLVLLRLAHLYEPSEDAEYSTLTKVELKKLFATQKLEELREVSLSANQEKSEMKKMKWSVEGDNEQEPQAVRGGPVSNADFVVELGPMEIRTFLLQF
Protocol: as §1

[3] = biological target: lysosomal α-mannosidase II (LManII) (Drosophila melanogaster, UniProt Q9VKV1); assay: Inhibition of lysosomal α-mannosidase II (LManII), pNP-Man substrate; type: biochemical; details: n.i. = no inhibition, 2 mM pNP-Man, pH 5.2
lysosomal α-mannosidase II (LManII), sequence (Q9VKV1 entry or part of it): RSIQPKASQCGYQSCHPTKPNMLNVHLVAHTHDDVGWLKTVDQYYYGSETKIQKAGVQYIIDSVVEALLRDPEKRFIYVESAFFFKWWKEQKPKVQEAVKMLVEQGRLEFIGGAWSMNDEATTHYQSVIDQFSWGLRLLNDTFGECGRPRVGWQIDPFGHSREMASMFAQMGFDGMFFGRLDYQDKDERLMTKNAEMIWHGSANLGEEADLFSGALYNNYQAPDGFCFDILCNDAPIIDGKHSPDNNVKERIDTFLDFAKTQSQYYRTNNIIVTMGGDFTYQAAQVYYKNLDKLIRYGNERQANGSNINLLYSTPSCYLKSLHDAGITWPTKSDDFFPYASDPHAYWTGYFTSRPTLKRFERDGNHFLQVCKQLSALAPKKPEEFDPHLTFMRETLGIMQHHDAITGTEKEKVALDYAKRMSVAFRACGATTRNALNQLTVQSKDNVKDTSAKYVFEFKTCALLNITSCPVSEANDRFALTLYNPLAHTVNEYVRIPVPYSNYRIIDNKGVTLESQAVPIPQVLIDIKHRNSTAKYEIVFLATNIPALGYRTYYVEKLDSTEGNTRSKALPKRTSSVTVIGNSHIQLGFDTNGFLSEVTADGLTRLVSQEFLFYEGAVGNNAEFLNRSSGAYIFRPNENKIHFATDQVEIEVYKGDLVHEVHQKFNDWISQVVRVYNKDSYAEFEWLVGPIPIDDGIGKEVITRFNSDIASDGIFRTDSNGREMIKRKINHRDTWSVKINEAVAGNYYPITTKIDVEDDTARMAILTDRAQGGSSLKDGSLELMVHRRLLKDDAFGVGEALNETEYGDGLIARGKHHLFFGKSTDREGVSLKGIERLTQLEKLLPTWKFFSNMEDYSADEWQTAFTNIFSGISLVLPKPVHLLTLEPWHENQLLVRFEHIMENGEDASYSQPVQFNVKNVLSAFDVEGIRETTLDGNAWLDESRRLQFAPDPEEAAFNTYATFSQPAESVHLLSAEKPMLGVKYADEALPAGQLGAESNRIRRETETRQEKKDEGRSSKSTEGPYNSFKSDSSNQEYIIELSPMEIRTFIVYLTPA
Protocol: as §1

[4] = pH 6.0, 0.5 mM CoCl2, 37 °C, read-out: GMIIb [IC50 (M)]

Drosophila melanogaster Golgi α-mannosidase II (GMIIb), sequence (Q9VF33 entry or part of it): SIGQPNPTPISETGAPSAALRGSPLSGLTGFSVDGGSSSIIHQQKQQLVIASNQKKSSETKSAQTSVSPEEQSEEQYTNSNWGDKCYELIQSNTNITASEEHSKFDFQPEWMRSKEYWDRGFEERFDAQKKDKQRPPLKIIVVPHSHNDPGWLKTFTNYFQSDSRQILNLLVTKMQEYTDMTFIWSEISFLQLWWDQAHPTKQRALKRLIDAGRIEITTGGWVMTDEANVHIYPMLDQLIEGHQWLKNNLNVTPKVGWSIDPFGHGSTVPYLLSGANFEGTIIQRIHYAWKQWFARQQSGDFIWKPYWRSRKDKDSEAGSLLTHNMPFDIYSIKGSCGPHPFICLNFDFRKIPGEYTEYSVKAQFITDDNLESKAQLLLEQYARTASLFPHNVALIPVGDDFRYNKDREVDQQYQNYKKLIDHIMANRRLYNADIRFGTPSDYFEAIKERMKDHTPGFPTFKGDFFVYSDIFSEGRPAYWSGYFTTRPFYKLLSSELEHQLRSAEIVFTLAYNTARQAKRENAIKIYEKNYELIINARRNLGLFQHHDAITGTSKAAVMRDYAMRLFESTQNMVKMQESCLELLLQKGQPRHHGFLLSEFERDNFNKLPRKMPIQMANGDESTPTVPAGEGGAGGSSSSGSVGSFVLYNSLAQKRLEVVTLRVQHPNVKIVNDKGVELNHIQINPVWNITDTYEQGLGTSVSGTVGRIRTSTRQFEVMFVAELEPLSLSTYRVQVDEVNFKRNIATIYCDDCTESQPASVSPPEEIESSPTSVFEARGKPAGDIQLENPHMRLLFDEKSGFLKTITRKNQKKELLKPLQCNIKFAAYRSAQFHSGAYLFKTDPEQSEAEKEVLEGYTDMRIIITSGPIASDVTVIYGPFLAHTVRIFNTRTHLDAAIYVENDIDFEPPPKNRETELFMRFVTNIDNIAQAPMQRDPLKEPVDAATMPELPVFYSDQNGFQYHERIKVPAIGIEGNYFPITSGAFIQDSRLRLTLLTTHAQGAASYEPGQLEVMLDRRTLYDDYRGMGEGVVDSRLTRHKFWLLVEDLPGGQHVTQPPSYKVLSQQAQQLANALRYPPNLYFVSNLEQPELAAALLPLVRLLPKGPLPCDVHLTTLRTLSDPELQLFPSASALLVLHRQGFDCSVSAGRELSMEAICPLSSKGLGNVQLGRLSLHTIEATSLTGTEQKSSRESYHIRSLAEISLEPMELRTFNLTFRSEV

SMILES | IC50 [1, 4] [M] | inhibition at 2000 µM [2] [%] | LmanII inhibition in the presence of 2 mM inhibitor concentration [3] | JBMan (%) inhibition in the presence of 2 mM inhibitor concentration [2] | IC50 ([1]; pH 6.0, read-out: GMIIb IC50) [M] | fold decrease in inhibition activity against GMIIb in comparison with 1a [1] | melting point [°C]
C[C@@H](O)[C@H]1[C@@H](O)[C@@H](O)CN1Cc1ccc(I)cc1 [Compound 4c] | 0.0019 | 17 | n.i.^a | – | – | – | –
C[C@H]1[C@@H](O)[C@@H](O)CN1Cc1ccccc1 [Compound 2a] | 0.00036 | – | n.i.^a | n.i. | – | – | –
CC[C@H]1[C@@H](O)[C@@H](O)CN1Cc1ccc(I)cc1 [Compound 3c] | 0.00045 | 39 | n.i.^a | – | < 0.0005 | – | –
C[C@H]1[C@@H](O)[C@@H](O)CN1Cc1ccc(Br)cc1 [Compound 2b] | 0.00035 | – | n.i.^a | n.i. | – | – | –
C[C@@H](O)[C@H]1[C@@H](O)[C@@H](O)CN1Cc1ccccc1 [Compound 4a] | 0.0018 | 2 | n.i.^a | – | – | about 25 fold | –
C[C@@H](O)[C@H]1[C@@H](O)[C@@H](O)CN1Cc1ccc(Br)cc1 [Compound 4b] | 0.0016 | 4 | n.i.^a | – | – | – | –
C[C@H](O)[C@H]1[C@@H](O)[C@@H](O)CN1Cc1ccccc1 [Compound 5a, (2S,3R,4S)-1-Benzyl-2-((S)-1-hydroxyethyl)pyrrolidine-3,4-diol] | 0.00195 | 21 | n.i.^a | – | – | about 25 fold | –
C[C@H]1[C@@H](O)[C@@H](O)CN1Cc1ccc(I)cc1 [Compound 2c] | 0.0003 | – | n.i.^a | n.i. | – | – | –
C[C@H](O)[C@H]1[C@@H](O)[C@@H](O)CN1Cc1ccc(I)cc1 [Compound 5c, (2S,3R,4S)-1-(4-Iodobenzyl)-2-((S)-1-hydroxyethyl)pyrrolidine-3,4-diol] | 0.00295 | 40 | n.i.^a | 38% | – | – | –
CC[C@H]1[C@@H](O)[C@@H](O)CN1Cc1ccc(Br)cc1 [Compound 3b] | 0.00095 | 14 | n.i.^a | – | – | – | –
C[C@H](O)[C@H]1[C@@H](O)[C@@H](O)CN1Cc1ccc(Br)cc1 [Compound 5b, (2S,3R,4S)-1-(4-Bromobenzyl)-2-((S)-1-hydroxyethyl)pyrrolidine-3,4-diol] | 0.00265 | 40 | n.i.^a | – | – | – | –
CC[C@H]1[C@@H](O)[C@@H](O)CN1Cc1ccccc1 [Compound 3a] | 0.00075 | 3 | n.i.^a | – | – | – | 76 to 78
